{"source": "paper PMC11500415", "about": "“Chemical inhibition of stomatal differentiation by perturbation of the master-regulatory bHLH heterodimer via an ACT-Like domain” (Nature Communications, 2024)", "key": {"[1]": {"molecular_target": "T1, SCRM (Arabidopsis thaliana, UniProt Q9LSE2)", "T1 construct": "SCRM (1-494); made in house; host or cells: E. coli BL21", "T1 sequence (Q9LSE2 1-494)": "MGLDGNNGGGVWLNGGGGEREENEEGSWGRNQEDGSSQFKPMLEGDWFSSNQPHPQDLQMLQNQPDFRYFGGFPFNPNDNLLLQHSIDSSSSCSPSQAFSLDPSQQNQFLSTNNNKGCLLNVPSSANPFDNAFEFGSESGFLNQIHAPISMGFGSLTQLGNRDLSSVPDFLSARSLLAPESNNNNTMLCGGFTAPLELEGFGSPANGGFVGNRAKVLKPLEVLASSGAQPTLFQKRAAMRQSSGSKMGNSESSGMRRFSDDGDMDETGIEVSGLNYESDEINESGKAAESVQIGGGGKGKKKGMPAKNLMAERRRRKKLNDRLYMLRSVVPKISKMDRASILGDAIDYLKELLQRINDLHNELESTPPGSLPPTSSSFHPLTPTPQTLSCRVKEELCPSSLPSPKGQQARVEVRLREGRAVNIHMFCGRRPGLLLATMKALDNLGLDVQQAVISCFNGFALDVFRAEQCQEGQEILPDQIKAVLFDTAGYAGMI", "test": "BLI direct binding", "set-up": "species or system A. thaliana"}, "[2]": {"molecular_target": "T2, MUTE (Arabidopsis thaliana, UniProt Q9M8K6)", "T2 construct": "MUTE (1-202); made in house; host or cells: E. coli BL21", "T2 sequence (Q9M8K6 whole entry)": "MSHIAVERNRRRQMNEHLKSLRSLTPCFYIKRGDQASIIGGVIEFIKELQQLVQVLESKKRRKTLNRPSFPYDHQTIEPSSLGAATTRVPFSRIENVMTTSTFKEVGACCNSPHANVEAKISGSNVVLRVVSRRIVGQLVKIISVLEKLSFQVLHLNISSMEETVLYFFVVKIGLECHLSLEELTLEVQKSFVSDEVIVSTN", "test": "BLI direct binding", "set-up": "species or system A. thaliana"}}, "note": "Several values for one entry are separate records, joined by “and”; a condition that tells them apart may be missing. Equal values may be shown once. Read-outs that look alike come from different tables or passages of the source.", "data": [{"smiles": "O=C1C(c2ccccc2)=NC(NS(=O)(=O)c2ccccc2)(c2ccccc2)N1S(=O)(=O)c1ccccc1", "note": "(stereo not shown) [Stomidazolone]", "values": [{"measurement": "Kd", "setting": "[1]; BLI steady state, read-out: KD (SS)", "result": "68.5 ± 5.6", "unit": "µM"}, {"measurement": "Kd", "setting": "[1]; BLI, read-out: KD", "result": "65.5 ± 0.6", "unit": "µM"}, {"measurement": "Kd", "setting": "[2]; BLI steady state, MUTE, read-out: KD (SS)", "result": "0.0089 ± 0.0012", "unit": "mM"}, {"measurement": "kdis", "setting": "[2]; MUTE loaded on Anti-GST sensor, fit per sensor, Stomid Conc. 200-3.12, rep-1, rep-2", "result": "0.0392 s⁻¹ and 0.0391 s⁻¹"}, {"measurement": "Kd", "setting": "[2]; MUTE loaded on Anti-GST sensor, fit per sensor, Stomid Conc. (mM) 200-3.12, rep-1, rep-2, read-out: KD", "result": "0.00896 mM and 0.00929 mM and 0.00909 mM and 0.0092 mM and 0.00905 mM and 0.00911 mM and 0.0091 mM and 0.00897 mM and 0.00907 mM and 0.00902 mM and 0.00906 mM"}, {"measurement": "RMax", "setting": "[2]; MUTE, Conc. 3.12, rep-1, rep-2", "result": "0.125 and 0.165"}, {"measurement": "Req/Rmax(%)", "setting": "[2]; MUTE, Conc. 3.12, rep-1, rep-2", "result": 100, "unit": "%"}, {"measurement": "Response", "setting": "[2]; MUTE, Conc. 3.12, rep-1, rep-2", "result": "0.1223 and 0.1634"}, {"measurement": "RMax", "setting": "[2]; MUTE, Conc. 6.25, rep-1, rep-2", "result": "0.275 and 0.215"}, {"measurement": "Req/Rmax(%)", "setting": "[2]; MUTE, Conc. 6.25, rep-1, rep-2", "result": "97% and 100%"}, {"measurement": "Response", "setting": "[2]; MUTE, Conc. 6.25, rep-1, rep-2", "result": "0.2732 and 0.2105"}, {"measurement": "RMax", "setting": "[2]; MUTE, Conc. 12.5, rep-1, rep-2", "result": "0.425 and 0.395"}, {"measurement": "Response", "setting": "[2]; MUTE, Conc. 12.5, rep-1, rep-2", "result": "0.4108 and 0.3912"}, {"measurement": "RMax", "setting": "[2]; MUTE, Conc. 25, rep-1, rep-2", "result": "0.525 and 0.47"}, {"measurement": "Response", "setting": "[2]; MUTE, Conc. 25, rep-1, rep-2", "result": "0.5211 and 0.4645"}, {"measurement": "RMax", "setting": "[2]; MUTE, Conc. 50, rep-1, rep-2", "result": "0.55 and 0.585"}, {"measurement": "Req/Rmax(%)", "setting": "[2]; MUTE, Conc. 50, rep-1, rep-2", "result": 89, "unit": "%"}, {"measurement": "Response", "setting": "[2]; MUTE, Conc. 50, rep-1, rep-2", "result": "0.5313 and 0.5832"}, {"measurement": "RMax", "setting": "[2]; MUTE, Conc. 100, rep-1, rep-2", "result": "0.605 and 0.635"}, {"measurement": "Response", "setting": "[2]; MUTE, Conc. 100, rep-1, rep-2", "result": "0.5932 and 0.6302"}, {"measurement": "RMax", "setting": "[2]; MUTE, Conc. 200, rep-1, rep-2", "result": "0.615 and 0.645"}, {"measurement": "Req/Rmax(%)", "setting": "[2]; MUTE, Conc. 200, rep-1, rep-2", "result": 98, "unit": "%"}, {"measurement": "Response", "setting": "[2]; MUTE, Conc. 200, rep-1, rep-2", "result": "0.606 and 0.634"}, {"measurement": "koff", "setting": "[2]; read-out: kdis(1/s), MUTE loaded on Anti-GST sensor, fit per sensor, Stomid Conc. 200-3.12, rep-1, rep-2", "result": 0.0393, "unit": "s⁻¹"}, {"measurement": "kon", "setting": "[2]; read-out: kon(1/Ms), MUTE loaded on Anti-GST sensor, fit per sensor, Stomid Conc. 200-3.12, rep-1, rep-2", "result": 4380, "unit": "M⁻¹ s⁻¹"}]}]}
